Assay results reported in patent US8202865B2, “Oxadiazole derivatives” (Merck Serono SA, priority 2007, dated 2012).
Counter-ions that a name gives are not always drawn.

Key:
[1] = biological target: T1, S1P1 (Homo sapiens, UniProt P21453); assay: Receptor binding assay, [33P]sphingosine 1-phosphate, membranes, WGA SPA beads; details: membranes from CHO cells expressing S1P1; 25 pM [33P]S1P; 60 min RT
T1 construct: expressed in transfected cells; host or cells: CHO cells (membranes)
Experimental: (§1) Receptor binding assay: Membranes were prepared from CHO cells expressing S1P1 or S1P3 for use in ligand and […] binding studies. Cells were suspended in 50 mM TRIS, pH 7.4, 2 mM EDTA, 250 mM Sucrose (buffer A) and 1× Complete protease inhibitor cocktail (Roche), and disrupted at 4° C. by N2 decompression using a cell disruption bomb (Parr Instrument). Following centrifugation at 1000 RPM for 10 min at 4° C., the supernatant was suspended in buffer A and centrifuged again at 19000 RPM for 60 min at 4° C. The pellet was then suspended in 10 mM HEPES, pH 7.4, 1 mM EDTA, 250 mM Sucrose (Buffer B), and 1× Complete EDTA-free protease inhibitor cocktail and homogenized using a potter. Membranes were flash frozen in liquid N2 and stored at −80° C. [33P]sphingosine 1-phosphate (3000 Ci/mmol; American Radiolabeled Chemicals, Inc.) was added to test compounds in DMSO. Membranes and WGA SPA beads (GE Healthcare) were added to give a final volume of 100 μl in 96-well plates with assay concentrations of 25 pM or 10 pM [33P]sphingosine 1-phosphate (respectively for S1P1 or S1P3), 50 mM HEPES, pH 7.5, 5 mM MgCl2, 100 mM NaCl, 0.4% fatty acid-free BSA, 1-5 μg/well of proteins and 100 μg/well of WGA SPA beads. Binding was performed for 60 min at RT on a shaker and bound radioactivity was measured on a PerkinElmer 1450 MicroBeta counter. Specific binding was calculated by subtracting remaining radioactivity in the presence of 1000-fold excess of unlabeled S1P. Binding data were analyzed using the GraphPad Prism program.

[2] = biological target: T2, S1P3 (Homo sapiens, UniProt Q99500); assay: 35S-GTPγS binding, S1P3 membranes; format: biochemical; details: membranes from CHO cells expressing S1P3; 60 min 30° C.
T2 construct: expressed in transfected cells; host or cells: CHO cells (membranes)
T2 sequence (Q99500 whole entry, species assumed): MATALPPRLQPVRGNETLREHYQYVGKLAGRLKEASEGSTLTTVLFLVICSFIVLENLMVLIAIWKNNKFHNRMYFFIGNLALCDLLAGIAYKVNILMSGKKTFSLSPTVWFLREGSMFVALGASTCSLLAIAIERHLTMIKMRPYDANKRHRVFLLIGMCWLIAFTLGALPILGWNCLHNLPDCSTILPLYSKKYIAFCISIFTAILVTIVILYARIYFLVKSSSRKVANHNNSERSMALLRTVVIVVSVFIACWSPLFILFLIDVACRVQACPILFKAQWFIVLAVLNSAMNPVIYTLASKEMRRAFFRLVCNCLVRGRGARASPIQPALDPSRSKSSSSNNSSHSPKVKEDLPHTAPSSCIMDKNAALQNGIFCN
Experimental: as §1
Measurements of ^35S-GTPγS Binding: Membranes (1 to 10 μg protein) prepared as described above, were incubated in 96-well Scintiplates (PerkinElmer) with test compounds diluted in DMSO, in 180 μl of 20 mM HEPES, pH 7.4, 10 mM MgCl2, 2 μg/well Saponin, 0.2% fatty acid free BSA (Assay buffer), 140 mM NaCl and 1.7 μM GDP. The assay was initiated with the addition of 20 μl of 1.5 nM [35S]-GTPγS (1100 Ci/mmol; GE Healthcare) in assay buffer. After 60 min incubation at 30° C. on a shaker, plates were centrifuged for 10 min at 2000 RPM. Supernatant was discarded and membrane bound radioactivity was measured on a PerkinElmer 1450 MicroBeta counter. Triplicate samples were averaged and expressed as % response relative to S1P activation in absence of compound (n=2).

[3] = biological target: T1, S1P1; assay: 35S-GTPγS binding, S1P1 membranes; format: biochemical; details: membranes from CHO cells expressing S1P1; 60 min 30° C.
In short: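 CHO-cell membranes expressing S1P1 or S1P3 (1-10 μg) incubated with compounds in 20 mM HEPES pH 7.4, 10 mM MgCl2, 140 mM NaCl, saponin, 0.2% BSA, 1.7 μM GDP and [35S]-GTPγS (20 μl of 1.5 nM added), 60 min at 30° C. Bound radioactivity expressed as % of S1P activation.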

T1 sequence (P21453 whole entry, species assumed): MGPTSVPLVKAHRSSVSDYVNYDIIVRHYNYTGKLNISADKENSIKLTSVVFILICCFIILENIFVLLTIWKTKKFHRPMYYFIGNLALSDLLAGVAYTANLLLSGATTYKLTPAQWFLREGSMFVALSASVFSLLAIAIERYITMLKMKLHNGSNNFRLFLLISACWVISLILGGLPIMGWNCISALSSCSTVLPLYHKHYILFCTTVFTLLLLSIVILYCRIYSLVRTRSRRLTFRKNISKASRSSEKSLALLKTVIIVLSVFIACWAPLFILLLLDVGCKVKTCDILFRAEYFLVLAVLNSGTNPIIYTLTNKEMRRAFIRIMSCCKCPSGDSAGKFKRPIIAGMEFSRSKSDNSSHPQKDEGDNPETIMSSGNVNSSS

Row | SMILES | Ki [1] | EC50 [2] | EC50 [3]
1 | Cc1ccccc1-c1ccc(-c2nc(-c3ccc(C(=O)O)cc3F)no2)cc1C [Example 10, 4-[5-(2,2′-dimethylbiphenyl-4-yl)-1,2,4-oxadiazol-3-yl]-3-fluorobenzoic acid] | 330 nM | > 30000 nM | 3510 nM
2 | CC1CCCCN1c1ccc(-c2nc(-c3ccc(C(=O)O)c(F)c3)no2)cc1NS(C)(=O)=O (stereo not shown) [Example 30, 2-fluoro-4-(5-{4-(2-methylpiperidin-1-yl)-3-[(methylsulfonyl)amino]phenyl}-1,2,4-oxadiazol-3-yl)benzoic acid] | 40 nM | 5930 nM | 50 nM
3 | COCc1cc(-c2nc(-c3ccc(F)c(CN(C)CC(=O)O)c3)no2)ccc1N1CCCCC1C (stereo not shown) [Example 152, N-(2-fluoro-5-{5-[3-(methoxymethyl)-4-(2-methylpiperidin-1-yl)phenyl]-1,2,4-oxadiazol-3-yl}benzyl)-N-methylglycine, Dihydrochloride salt] | – | 223 nM | 0.6 nM
4 | O=C(O)c1ccc(-c2noc(-c3ccc(-c4ccccc4C(F)(F)F)cc3)n2)cc1F [Example 1, 2-fluoro-4-{5-[2′-(trifluoromethyl)biphenyl-4-yl]-1,2,4-oxadiazol-3-yl}benzoic acid] | 2470 nM | – | –
5 | Cc1ccccc1-c1ccc(-c2nc(-c3ccc(C(=O)NCCC(=O)O)c(F)c3)no2)cc1C [Example 55, N-{4-[5-(2,2′-dimethylbiphenyl-4-yl)-1,2,4-oxadiazol-3-yl]-2-fluorobenzoyl}-beta-alanine] | – | 12600 nM | 53 nM
6 | Cc1ccccc1-c1ccc(-c2nc(-c3ccc(C(=O)NCC(=O)O)c(F)c3)no2)cc1C [Example 54, N-{4-[5-(2,2′-dimethylbiphenyl-4-yl)-1,2,4-oxadiazol-3-yl]-2-fluorobenzoyl}glycine] | – | 6430 nM | 168 nM
7 | COCc1cc(-c2nc(-c3cccc(OCC(=O)O)c3)no2)ccc1-c1ccccc1C [Example 167, (3-{5-[2-(methoxymethyl)-2′-methylbiphenyl-4-yl]-1,2,4-oxadiazol-3-yl}phenoxy)acetic acid] | 10 nM | – | 22.4 nM
8 | COCCN(C)Cc1cccc(-c2noc(-c3ccc(-c4ccccc4C)c(COC)c3)n2)c1 [Example 185, 2-methoxy-N-(3-{5-[2-(methoxymethyl)-2′-methylbiphenyl-4-yl]-1,2,4-oxadiazol-3-yl}benzyl)-N-methylethanamine, Hydrochloride salt] | 7 nM | – | 5 nM
9 | CC(C)COc1ncc(-c2nc(-c3ccc(C(=O)O)c(F)c3)no2)cc1Cl [Example 34, 4-[5-(5-chloro-6-isobutoxypyridin-3-yl)-1,2,4-oxadiazol-3-yl]-2-fluorobenzoic acid] | 2930 nM | – | 4990 nM
10 | CC1CCCCN1c1ccc(-c2nc(-c3ccc(S(N)(=O)=O)cc3)no2)cc1NS(C)(=O)=O (stereo not shown) [Example 37, 4-(5-{4-(2-methylpiperidin-1-yl)-3-[(methylsulfonyl)amino]phenyl}-1,2,4-oxadiazol-3-yl)benzenesulfonamide] | 10 nM | – | 1.6 nM
11 | COCc1cc(-c2nc(-c3ccc(OCCCC(=O)O)c(F)c3)no2)ccc1-c1ccccc1C [Example 168, 4-(2-fluoro-4-{5-[2-(methoxymethyl)-2′-methylbiphenyl-4-yl]-1,2,4-oxadiazol-3-yl}phenoxy)butanoic acid] | – | 219 nM | 7.8 nM
12 | COCc1cc(-c2nc(-c3ccc(C(=O)NCC(=O)OC)c(F)c3)no2)ccc1-c1ccccc1C [Example 122, Methyl N-(2-fluoro-4-{5-[2-(methoxymethyl)-2′-methylbiphenyl-4-yl]-1,2,4-oxadiazol-3-yl}benzoyl)glycinate] | 0.9 nM | – | 2.5 nM
13 | COCc1cc(-c2nc(-c3ccc(CO)cc3)no2)ccc1-c1ccccc1C [Example 191, (4-{5-[2-(methoxymethyl)-2′-methylbiphenyl-4-yl]-1,2,4-oxadiazol-3-yl}phenyl)methanol] | 7 nM | – | 2.1 nM
14 | CCC(C)Oc1ncc(-c2nc(-c3ccc(OCC(=O)O)c(F)c3)no2)cc1Cl (stereo not shown) [Example 50, {4-[5-(6-sec-butoxy-5-chloropyridin-3-yl)-1,2,4-oxadiazol-3-yl]-2-fluorophenoxy}acetic acid] | 50 nM | – | 261 nM
15 | COCc1cc(-c2nc(-c3cccc(CCO)c3)no2)ccc1-c1ccccc1C [Example 190, 2-(3-{5-[2-(methoxymethyl)-2′-methylbiphenyl-4-yl]-1,2,4-oxadiazol-3-yl}phenyl)ethanol] | 4.3 nM | – | 0.7 nM
16 | COCc1cc(-c2nc(-c3ccc(C(=O)NCCC#N)c(F)c3)no2)ccc1-c1ccccc1C [Example 173, N-(2-cyanoethyl)-2-fluoro-{5-[2-(methoxymethyl)-2′-methylbiphenyl-4-yl]-1,2,4-oxadiazol-3-yl}benzamide] | 2 nM | – | 6 nM
17 | CC1CCCCN1c1ccc(-c2nc(-c3cccc(CN(C)CC(=O)O)c3)no2)cc1NS(C)(=O)=O (stereo not shown) [Example 57, N-methyl-N-[3-(5-{4-(2-methylpiperidin-1-yl)-3-[(methylsulfonyl)amino]phenyl}-1,2,4-oxadiazol-3-yl)benzyl]glycine, Hydrochloride salt] | 6 nM | – | 4 nM

Next, values leading:

Row | Ki [1] | EC50 [2] | EC50 [3] | SMILES
18 | 74 nM | > 20000 nM | 208 nM | COCc1cc(-c2nc(-c3ccc(C(=O)O)c(F)c3)no2)ccc1-c1ccccc1OC [Example 79, 2-fluoro-4-{5-[2′-methoxy-2-(methoxymethyl)biphenyl-4-yl]-1,2,4-oxadiazol-3-yl}benzoic acid]
19 | – | > 30000 nM | 645 nM | Cc1ccccc1-c1ccc(-c2nc(-c3ccc(C(=O)O)c(F)c3)no2)cc1[N+](=O)[O-] [Example 11, 2-fluoro-4-[5-(2′-methyl-2-nitrobiphenyl-4-yl)-1,2,4-oxadiazol-3-yl]benzoic acid]
20 | – | > 30000 nM | 1220 nM | CC1CCCCN1c1ccc(-c2nc(-c3ccc(C(=O)O)c(F)c3)no2)cc1[N+](=O)[O-] (stereo not shown) [Example 15, 2-fluoro-4-{5-[4-(2-methylpiperidin-1-yl)-3-nitrophenyl]-1,2,4-oxadiazol-3-yl}benzoic acid]
21 | – | 2300 nM | 556 nM | COCc1ccccc1-c1ccc(-c2nc(-c3ccc(C(=O)O)c(F)c3)no2)cc1COC [Example 85, 4-{5-[2,2′-bis(methoxymethyl)biphenyl-4-yl]-1,2,4-oxadiazol-3-yl}-2-fluorobenzoic acid]
22 | 530 nM | – | – | CC(C)Oc1ncc(-c2nc(-c3ccc(C(=O)O)c(F)c3)no2)cc1Cl [Example 36, 4-[5-(5-chloro-6-isopropoxypyridin-3-yl)-1,2,4-oxadiazol-3-yl]-2-fluorobenzoic acid]
23 | – | > 30000 nM | 924 nM | COc1ccccc1-c1ccc(-c2nc(-c3ccc(C(=O)O)c(F)c3)no2)cc1C [Example 7, 2-fluoro-4-[5-(2′-methoxy-2-methylbiphenyl-4-yl)-1,2,4-oxadiazol-3-yl]benzoic acid]
24 | – | > 20000 nM | 294 nM | CC(C)Oc1ncc(-c2nc(-c3ccc(OCC(=O)O)c(F)c3)no2)cc1Cl [Example 53, {4-[5-(5-chloro-6-isopropoxypyridin-3-yl)-1,2,4-oxadiazol-3-yl]-2-fluorophenoxy}acetic acid]
25 | 10 nM | – | 30 nM | COCc1cc(-c2nc(-c3ccc(C(=O)O)c(F)c3)no2)ccc1-c1ccccc1C [Example 35, 2-fluoro-4-{5-[2-(methoxymethyl)-2′-methylbiphenyl-4-yl]-1,2,4-oxadiazol-3-yl}benzoic acid]
26 | 2600 nM | – | – | Cc1cccc(C)c1-c1ccc(-c2nc(-c3ccc(C(=O)O)c(F)c3)no2)cc1 [Example 3, 4-[5-(2′,6′-dimethylbiphenyl-4-yl)-1,2,4-oxadiazol-3-yl]-2-fluorobenzoic acid]
